Experimental data from publication PMC5306265 (Investigational New Drugs, 2016).
Like-named read-outs stand apart in the source and are kept apart here.

Tests used:
[1] = Plasma pharmacokinetics in patients (LC-MS/MS, noncompartmental analysis); format: in vivo, human; settings: for half-life / AUC / Cmax / Tmax: human, plasma; for AUC / Cmax / Tmax: po; for AUC: read-out: AUC(0-τ) Geometric mean (%CV); for Cmax: read-out: Cmax Geometric mean (%CV)
Text: (§1) Quality controls, analyzed in duplicate over the validation range, and inter-assay precision, evaluated at each level in duplicate in six runs, met the performance and acceptance criteria. Noncompartmental analyses, using WinNonlin version 6.1 or higher (Pharsight, Cary, NC), in pharmacokinetic-evaluable patients were used to determine plasma and urine pharmacokinetic parameters including: Cmax, maximum plasma concentration; Tmax, time to Cmax; AUC0–τ, area under the plasma concentration–time curve over the dosing interval; CL/F, apparent clearance; t½, terminal elimination half-life; accumulation ratio; peak/trough ratio; and renal clearance.

MEK1/2 = settings: read-out: IC50 for MEK signaling inhibition; cited from earlier work
xenograft model = settings: single-agent TAK-733, cited from earlier work
[2] = tested on: BRAF V600E-mutant cutaneous melanoma cell lines; settings: high proportion of BRAF V600E-mutant cutaneous melanoma cell lines; read-out: IC50 (high sensitivity); cited from earlier work
[3] = Urine pharmacokinetics in patients (renal clearance); format: in vivo; settings: human, oral, 16 patients, 0.2–22 mg dose range, day 21 of cycle 1
Text: as §1

Cn1c(=O)c(F)c(Nc2ccc(I)cc2F)c2c(=O)n(C[C@@H](O)CO)cnc21 [TAK-733]
CLss/F Geometric mean (%CV) ([1]; 3.2 mg oral, day 21): 3.0 (102) L/h
Rac Mean (SD) ([1]; 3.2 mg oral, day 21): 7.2 (1.5)
CLss/F Geometric mean (%CV) ([1]; 4.4 mg oral, day 21): 13.8 (29) L/h
CLss/F Geometric mean (%CV) ([1]; 6 mg oral, day 21): 6.5 (18) L/h
Rac Mean (SD) ([1]; 6 mg oral, day 21): 2.8 (1.2)
CLss/F Geometric mean (%CV) ([1]; 8.4 mg oral, day 21): 10.7 (17) L/h
Rac Mean (SD) ([1]; 8.4 mg oral, day 21): 2.5 (1.0)
CLss/F Geometric mean (%CV) ([1]; 16 mg oral, day 21): 7.4 (28) L/h
Rac Mean (SD) ([1]; 16 mg oral, day 21): 4.4 (2.6)
CLss/F Geometric mean (%CV) ([1]; 22 mg oral, day 21): 15.7 (36) L/h
Rac Mean (SD) ([1]; 22 mg oral, day 21): 1.8 (1.2)
half-life ([1]; oral, 11.8–22 mg dose range, read-out: Terminal half-life following multiple dosing): 29 to 50 h
AUC ([1]; 3.2 mg, 3.2 mg oral, day 1): 129 ng·h/mL
Cmax ([1]; 3.2 mg, 3.2 mg oral, day 1): 14.8 ng/mL
Tmax ([1]; 3.2 mg, 3.2 mg oral, day 1, read-out: Tmax Median (range)): 1.55 h
AUC ([1]; 3.2 mg, 3.2 mg oral, day 21): 1050 ng·h/mL
Cmax ([1]; 3.2 mg, 3.2 mg oral, day 21): 63 ng/mL
Tmax ([1]; 3.2 mg, 3.2 mg oral, day 21, read-out: Tmax Median (range)): 3 h
AUC ([1]; 4.4 mg, 4.4 mg oral, day 1): 98.1 ng·h/mL
Cmax ([1]; 4.4 mg, 4.4 mg oral, day 1): 11 ng/mL
Tmax ([1]; 4.4 mg, 4.4 mg oral, day 1, read-out: Tmax Median (range)): 3.5 h
AUC ([1]; 4.4 mg, 4.4 mg oral, day 21): 318 ng·h/mL
Cmax ([1]; 4.4 mg, 4.4 mg oral, day 21): 24.8 ng/mL
Tmax ([1]; 4.4 mg, 4.4 mg oral, day 21, read-out: Tmax Median (range)): 1.95 h
AUC ([1]; 6 mg, 6 mg oral, day 1): 331 ng·h/mL
Cmax ([1]; 6 mg, 6 mg oral, day 1): 26.2 ng/mL
Tmax ([1]; 6 mg, 6 mg oral, day 1, read-out: Tmax Median (range)): 4.5 h
AUC ([1]; 6 mg, 6 mg oral, day 21): 925 ng·h/mL
Cmax ([1]; 6 mg, 6 mg oral, day 21): 59.7 ng/mL
Tmax ([1]; 6 mg, 6 mg oral, day 21, read-out: Tmax Median (range)): 3 h
AUC ([1]; 8.4 mg, 8.4 mg oral, day 1): 360 ng·h/mL
Cmax ([1]; 8.4 mg, 8.4 mg oral, day 1): 28.4 ng/mL
Tmax ([1]; 8.4 mg, 8.4 mg oral, day 1, read-out: Tmax Median (range)): 3 h
AUC ([1]; 8.4 mg, 8.4 mg oral, day 21): 786 ng·h/mL
Cmax ([1]; 8.4 mg, 8.4 mg oral, day 21): 57.4 ng/mL
Tmax ([1]; 8.4 mg, 8.4 mg oral, day 21, read-out: Tmax Median (range)): 3 h
AUC ([1]; 11.8 mg, 11.8 mg oral, day 1): 299 ng·h/mL
Cmax ([1]; 11.8 mg, 11.8 mg oral, day 1): 23 ng/mL
Tmax ([1]; 11.8 mg, 11.8 mg oral, day 1, read-out: Tmax Median (range)): 3.05 h
Cmax ([1]; 11.8 mg, 11.8 mg oral, day 21): 53.2 ng/mL
Tmax ([1]; 11.8 mg, 11.8 mg oral, day 21, read-out: Tmax Median (range)): 4 h
AUC ([1]; 16 mg, 16 mg oral, day 1): 640 ng·h/mL
Cmax ([1]; 16 mg, 16 mg oral, day 1): 55.7 ng/mL
Tmax ([1]; 16 mg, 16 mg oral, day 1, read-out: Tmax Median (range)): 2.1 h
AUC ([1]; 16 mg, 16 mg oral, day 21): 2150 ng·h/mL
Cmax ([1]; 16 mg, 16 mg oral, day 21): 151 ng/mL
Tmax ([1]; 16 mg, 16 mg oral, day 21, read-out: Tmax Median (range)): 3.4 h
AUC ([1]; 22 mg, 22 mg oral, day 1): 766 ng·h/mL
Cmax ([1]; 22 mg, 22 mg oral, day 1): 60 ng/mL
Tmax ([1]; 22 mg, 22 mg oral, day 1, read-out: Tmax Median (range)): 3 h
AUC ([1]; 22 mg, 22 mg oral, day 21): 1390 ng·h/mL
Cmax ([1]; 22 mg, 22 mg oral, day 21): 105 ng/mL
Tmax ([1]; 22 mg, 22 mg oral, day 21, read-out: Tmax Median (range)): 1.05 h
Tmax ([1]; 0.2–22 mg, overall, read-out: Tmax range): 0.5 to 8.1 h
Tmax ([1]; 0.2–22 mg, read-out: overall median Tmax): 3 h
half-life ([1]; 11.8 mg oral, day 21, read-out: Terminal t½ Mean (SD) (converted)): 43 h
half-life ([1]; 16 mg oral, day 21, read-out: Terminal t½ Mean (SD) (converted)): 39.9 h
half-life ([1]; 22 mg oral, day 21, read-out: Terminal t½ Mean (SD) (converted)): 38.3 h
IC50 (MEK1/2): 2 to 5 nM
exposures associated with stasis in the most sensitive xenograft model (xenograft model): 861 to 1065 ng·h/mL
time-averaged inhibition of ERK phosphorylation associated with tumor stasis (xenograft model; xenograft models): 76–89%
IC50 [2]: < 100 nM
CL renal [3]: 0.833 to 8.17 mL/min
